The results in this text go back to patent US11325899B2, “Benzofurane and benzothiophene derivatives as PGE2 receptor modulators” (IDORSIA PHARMACEUTICALS LTD, priority 2017, dated 2022).

pIC50: −log10 of the molar value.

One experiment deals with T1, PTGER2 (EP2) (Homo sapiens, UniProt P43116).
T1 construct: host or cells: HEK 293 (PathHunter PTGER2 b-arrestin cell line)
Nature of the experiment: hEP2 b-arrestin assay (PathHunter HEK 293 PTGER2 b-arrestin cells). It is filed as cell-based. The conditions noted are these: antagonistic activity, beta-arrestin assay; read-out: hEP2 b-arr IC50. How it is done:
(§1) The antagonistic activities of the compounds of formula (I) on the EP2 and EP4 receptors are determined in accordance with the following experimental method.
(§2) The assay is using the PathHunter™ HEK 293 PTGER2 and PTGER4 b-arrestin cell lines from DiscoverX. The system is based on the Enzyme Fragment Complementation Technology. Two complementing fragments of the b-galactosidase enzyme are expressed within stably transfected cells. The larger portion of b-gal, termed EA for Enzyme Acceptor, is fused to the C-terminus of b-arrestin 2. The smaller fragment, termed ProLink™ tag, is fused to PTGER2 (EP2) or PTRGER4 (EP4) at the C-terminus. Upon activation, b-arrestin is recruited which forces the interaction of ProLink and EA, allowing complementation of the two fragments of b-gal and the formation of a functional enzyme which is capable of hydrolysing the substrate and generating a chemiluminescent signal.
The HEK 293 PTGER2 b-arrestin cells (DiscoverX 93-021-4C1) are detached from culture dishes with a cell dissociation buffer (Invitrogen, 13151-014), and collected in growing medium (GM: DMEM+Glutamax-I (Invitrogen 32430)/10% FCS, 1% Penicilin/streptomycin). 5000 cells per well of a 384 well plate (white with white bottom Greiner 781080) are seeded in 20 ul per well of GM. Plate is incubated at 37° C., 5% C02 for 24 hours.
(§3) Stock solutions of test compounds are made at a concentration of 10 mM in DMSO, and serially diluted in DMSO to concentrations required for inhibition dose response curves (tested concentration range 10 μM-2 nM or 1 μM-0.2 nM).
PGE2 (Cayman 14010, stock solution: 10 mM in DMSO) is used as agonist at 5 μM final concentration, corresponding to EC80.
Five microliters of diluted compounds are transferred into the assay plate. Plate is pre-incubated 15 minutes at 37° C. Then five microliters of PGE2 (final conc. 5 μM) are transferred into the assay plate. Plate is incubated 120 minutes at 37° C.
(§4) PathHunter Glo Detection Kit components are thawed and mix according to manufacturer's instructions: 1 part Galacton Star Substrate with 5 parts Emerald II™ Solution, and 19 parts of PathHunter Cell Assay Buffer, respectively. Twelve μl of reagent are transferred to the assay plate and incubate for 1 hour at room temperature in the dark. Luminescence counts are read on a BMG Fluostar Optima reader according to manufacturer's instructions.
(§5) For each compound concentration calculate of the percentage of activity compared to DMSO control value as average±STDEV. (each concentration is measured in duplicate)
(§6) IC50 values and curves are generated with XLfit software (IDBS) using Dose-Response One Site model 203. When compounds were measured multiple times, mean values are given.

In the next experiment the target is T2, PTGER4 (EP4) (Homo sapiens, UniProt P35408).
T2 construct: host or cells: HEK 293 (PathHunter PTGER4 b-arrestin cell line)
T2 sequence (P35408 whole entry): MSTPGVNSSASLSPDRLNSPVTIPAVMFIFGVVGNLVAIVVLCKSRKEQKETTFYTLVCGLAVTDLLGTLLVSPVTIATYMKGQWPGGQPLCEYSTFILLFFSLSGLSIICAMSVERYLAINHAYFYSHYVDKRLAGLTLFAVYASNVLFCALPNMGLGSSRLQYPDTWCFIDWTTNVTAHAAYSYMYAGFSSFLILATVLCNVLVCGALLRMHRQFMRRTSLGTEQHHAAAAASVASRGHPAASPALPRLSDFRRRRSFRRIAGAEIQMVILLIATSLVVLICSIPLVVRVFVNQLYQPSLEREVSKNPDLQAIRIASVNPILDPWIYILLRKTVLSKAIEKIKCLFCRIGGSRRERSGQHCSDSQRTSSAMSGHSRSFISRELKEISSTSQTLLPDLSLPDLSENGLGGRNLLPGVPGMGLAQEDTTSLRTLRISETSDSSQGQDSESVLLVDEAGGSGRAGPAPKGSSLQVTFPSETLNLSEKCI
Nature of the experiment: hEP4 b-arrestin assay (PathHunter HEK 293 PTGER4 b-arrestin cells). To be noted: antagonistic activity, beta-arrestin assay; read-out: hEP4 b-arr IC50. It is filed as cell-based. How it is done:
as §1, §2
The HEK 293 PTGER4 b-arrestin cells (DiscoverX 93-030-4C1) are detached from culture dishes with a cell dissociation buffer (Invitrogen, 13151-014), and collected in growing medium (GM: DMEM+Glutamax-I (Invitrogen 32430)/10% FCS, 1% Penicilin/streptomycin). 5000 cells per well of a 384 well plate (white with white bottom Greiner 781080) are seeded in 20 ul per well of GM. Plate is incubated at 37° C., 5% C02 for 24 hours.
as §3
PGE2 (Cayman 14010, stock solution: 100 uM in DMSO) is used as agonist at 20 nM final concentration, corresponding to EC80.
Five microliters of diluted compounds are transferred into the assay plate. Plate is pre-incubated 15 minutes at 37° C. Then five microliters of PGE2 (final conc. 20 nM) are transferred into the assay plate. Plate is incubated 120 minutes at 37° C.
as §4, §5, §6

T1 sequence (P43116 whole entry): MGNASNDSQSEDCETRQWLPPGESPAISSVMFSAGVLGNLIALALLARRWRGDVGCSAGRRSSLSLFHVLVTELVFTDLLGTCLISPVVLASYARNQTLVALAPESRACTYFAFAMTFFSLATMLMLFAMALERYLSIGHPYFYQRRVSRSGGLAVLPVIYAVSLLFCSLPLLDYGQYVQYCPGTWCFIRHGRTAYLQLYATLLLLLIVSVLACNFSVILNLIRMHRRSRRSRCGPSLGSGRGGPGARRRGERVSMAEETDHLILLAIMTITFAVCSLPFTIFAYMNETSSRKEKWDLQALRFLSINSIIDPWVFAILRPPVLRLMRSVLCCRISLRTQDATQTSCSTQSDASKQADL

A word on the pIC50: it is the negative decadic logarithm of the IC50, by convention in mol/L. Turning to `CSc1cc(-c2cc(NCCc3c(C#N)sc4ccccc34)ncn2)ccc1C(=O)O` [Example 173, 4-{6-[2-(2-Cyano-benzo[b]thiophen-3-yl)-ethylamino]-pyrimidin-4-yl}-2-methylsulfanyl-benzoic acid], the pIC50 on PTGER2 (EP2) is 8.10; at PTGER4 (EP4), 6.12.

`COc1cc(-c2cc(NCCc3c(C#N)sc4ccccc34)ncn2)ccc1CC(=O)O` [Example 174, (4-{6-[2-(2-Cyano-benzo[b]thiophen-3-yl)-ethylamino]-pyrimidin-4-yl}-2-methoxy-phenyl)-acetic acid]: the pIC50 was 6.87 at PTGER2 (EP2) and 6.14 at PTGER4 (EP4).

Regarding `Cc1sc2c(C)cc(F)cc2c1CCNc1cc(-c2ccc(-c3noc(=O)[nH]3)cc2)ncn1` [Example 177, 3-(4-{6-[2-(5-Fluoro-2,7-dimethyl-benzo[b]thiophen-3-yl)-ethylamino]-pyrimidin-4-yl}-phenyl)-[1,2,4]oxadiazol-5(4H)-one [tautomeric form: 3-(4-{6-[2-(5-Fluoro-2,7-dimethyl-benzo[b]thiophen-3-yl)-ethylamino]-pyrimidin-4-yl}-phenyl)-[1,2,4]oxadiazol-5-ol]], the pIC50 at PTGER2 (EP2) was 7.33; at PTGER4 (EP4), 6.67.

`Cc1sc2c(C)cc(F)cc2c1CCNc1cc(-c2ccc(C(N)=O)cc2)ncn1` [Example 178, 4-{6-[2-(5-Fluoro-2,7-dimethyl-benzo[b]thiophen-3-yl)-ethylamino]-pyrimidin-4-yl}-benzamide]: the pIC50 at PTGER2 (EP2) was 7.32; at PTGER4 (EP4), 6.48.

With `CCSc1cc(-c2cc(NCCc3c(C)sc4c(C)cc(F)cc34)ncn2)ccc1C(=O)O` [Example 179, 2-Ethylsulfanyl-4-{6-[2-(5-fluoro-2,7-dimethyl-benzo[b]thiophen-3-yl)-ethylamino]-pyrimidin-4-yl}-benzoic acid], the results for the pIC50 at PTGER2 (EP2) and at PTGER4 (EP4) were 8.10 and 6.74, respectively.

For `Cc1sc2c(C)cc(F)cc2c1CCNc1cc(-c2ccc(-c3c(O)c(=O)c3=O)cc2)ncn1` [Example 180, 3-(4-{6-[2-(5-Fluoro-2,7-dimethyl-benzo[b]thiophen-3-yl)-ethylamino]-pyrimidin-4-yl}-phenyl)-4-hydroxy-cyclobut-3-ene-1,2-dione], the pIC50 is 7.70 at PTGER2 (EP2) and 6.92 on PTGER4 (EP4).

Consider `CCc1cc(-c2cc(NCCc3c(C)sc4c(C)cc(F)cc34)ncn2)ccc1C(=O)OC` [Example 181, 2-Ethyl-4-{6-[2-(5-fluoro-2,7-dimethyl-benzo[b]thiophen-3-yl)-ethylamino]-pyrimidin-4-yl}-benzoic acid methyl ester], for which the figures for the pIC50 at PTGER2 (EP2) and on PTGER4 (EP4) were 6.90 and 6.37, respectively.

In the case of `Cc1sc2c(C)cc(F)cc2c1CCNc1cc(-c2ccc3[nH]ccc3c2)ncn1` [Example 183, [2-(5-Fluoro-2,7-dimethyl-benzo[b]thiophen-3-yl)-ethyl]-[6-(1H-indol-5-yl)-pyrimidin-4-yl]-amine], the pIC50 at PTGER2 (EP2) is 7.40; on PTGER4 (EP4), 6.68.

In the case of `CCc1cc(-c2cc(NCCc3c(C)sc4c(C)cc(F)cc34)ncn2)ccc1CC(=O)O` [Example 185, (2-Ethyl-4-{6-[2-(5-fluoro-2,7-dimethyl-benzo[b]thiophen-3-yl)-ethylamino]-pyrimidin-4-yl}-phenyl)-acetic acid], the pIC50 on PTGER2 (EP2) was 7.30; on PTGER4 (EP4), 6.87.

`Cc1sc2c(C)cc(F)cc2c1CCNc1cc(-c2ccc(CC(=O)O)c(OC(F)(F)F)c2)ncn1` [Example 187, (4-{6-[2-(5-Fluoro-2,7-dimethyl-benzo[b]thiophen-3-yl)-ethylamino]-pyrimidin-4-yl}-2-trifluoromethoxy-phenyl)-acetic acid]: the pIC50 at PTGER2 (EP2) was 7.10; on PTGER4 (EP4), 6.37.

Consider `Cc1sc2c(C)cc(F)cc2c1CCNc1cc(-c2ccc(NC=O)cc2)ncn1` [Example 188, N-(4-{6-[2-(5-Fluoro-2,7-dimethyl-benzo[b]thiophen-3-yl)-ethylamino]-pyrimidin-4-yl}-phenyl)-formamide], for which the pIC50 at PTGER2 (EP2) was 7.01; at PTGER4 (EP4) it was 6.16.

Regarding `CCOc1cc(-c2cc(NCCc3c(C)sc4c(C)cc(F)cc34)ncn2)ccc1NC=O` [Example 191, N-(2-Ethoxy-4-{6-[2-(5-fluoro-2,7-dimethyl-benzo[b]thiophen-3-yl)-ethylamino]-pyrimidin-4-yl}-phenyl)-formamide], the pIC50 at PTGER2 (EP2) is 7.35; on PTGER4 (EP4), 6.87.

For `Cc1sc2c(C)cc(F)cc2c1CCNc1cc(-c2ccc(CC(=O)O)c(OC(C)C)c2)ncn1` [Example 192, (4-{6-[2-(5-Fluoro-2,7-dimethyl-benzo[b]thiophen-3-yl)-ethylamino]-pyrimidin-4-yl}-2-isopropoxy-phenyl)-acetic acid], the results for the pIC50 on PTGER2 (EP2) and on PTGER4 (EP4) were 7.14 and 6.58, respectively.

Take `CCc1cc(-c2cc(NCCc3c(C)sc4c(C)cc(F)cc34)ncn2)ccc1C(=O)O` [Example 193, 2-Ethyl-4-{6-[2-(5-fluoro-2,7-dimethyl-benzo[b]thiophen-3-yl)-ethylamino]-pyrimidin-4-yl}-benzoic acid]: the results for the pIC50 at PTGER2 (EP2) and at PTGER4 (EP4) were 7.74 and 6.18, respectively.

For the compound `CCc1cc(-c2cc(NCCc3c(C)sc4c(C)cc(F)cc34)ncn2)sc1CC(=O)O` [Example 197, (3-Ethyl-5-{6-[2-(5-fluoro-2,7-dimethyl-benzo[b]thiophen-3-yl)-ethylamino]-pyrimidin-4-yl}-thiophen-2-yl)-acetic acid], the pIC50 at PTGER2 (EP2) was 7.07; at PTGER4 (EP4), 6.84.

For `Cc1cc(-c2cc(NCCc3c(C)sc4c(C)cc(F)cc34)ncn2)cc(Cl)c1CC(=O)O` [Example 198, (2-Chloro-4-{6-[2-(5-fluoro-2,7-dimethyl-benzo[b]thiophen-3-yl)-ethylamino]-pyrimidin-4-yl}-6-methyl-phenyl)-acetic acid], the results for the pIC50 on PTGER2 (EP2) and at PTGER4 (EP4) were 7.11 and 6.76, respectively.

With `CCOc1cc(-c2cc(NCCc3c(C)sc4c(C)cc(F)cc34)ncn2)[nH]c1C(=O)O` [Example 199, 3-Ethoxy-5-{6-[2-(5-fluoro-2,7-dimethyl-benzo[b]thiophen-3-yl)-ethylamino]-pyrimidin-4-yl}-1 H-pyrrole-2-carboxylic acid], the pIC50 at PTGER2 (EP2) was 8.30; at PTGER4 (EP4), 6.44.

`CCn1cc(-c2cc(NCCc3c(C)sc4c(C)cc(F)cc34)ncn2)cc1C(=O)O` [Example 200, 1-Ethyl-4-{6-[2-(5-fluoro-2,7-dimethyl-benzo[b]thiophen-3-yl)-ethylamino]-pyrimidin-4-yl}-1H-pyrrole-2-carboxylic acid]: the values for the pIC50 at PTGER2 (EP2) and at PTGER4 (EP4) were 7.20 and 6.26, respectively.

For the compound `CCCn1cc(-c2cc(NCCc3c(C)sc4c(C)cc(F)cc34)ncn2)cc1C(=O)O` [Example 201, 4-{6-[2-(5-Fluoro-2,7-dimethyl-benzo[b]thiophen-3-yl)-ethylamino]-pyrimidin-4-yl}-1-propyl-1H-pyrrole-2-carboxylic acid], the results for the pIC50 at PTGER2 (EP2) and on PTGER4 (EP4) were 7.47 and 6.45, respectively.

Consider `COc1cc(-c2cc(NCCc3c(C)sc4c(C)cc(F)cc34)ncn2)ccc1-c1cc(O)no1` [Example 203, 5-(4-{6-[2-(5-Fluoro-2,7-dimethyl-benzo[b]thiophen-3-yl)-ethylamino]-pyrimidin-4-yl}-2-methoxy-phenyl)-isoxazol-3-ol [tautomeric form: 5-(4-(6-((2-(5-fluoro-2,7-dimethylbenzo[b]thiophen-3-yl)ethyl)amino)pyrimidin-4-yl)-2-methoxyphenyl)isoxazol-3(2H)-one]], for which the figures for the pIC50 at PTGER2 (EP2) and at PTGER4 (EP4) were 7.80 and 6.62, respectively.
